Results from patent US20130338106A1, “COMPOUNDS INHIBITING LEUCINE-RICH REPEAT KINASE ENZYME ACTIVITY” (priority 2011, published 2013).
pIC50: −log10 of the molar value.

Biological target: T1, LRRK2 G2019S mutant kinase (Homo sapiens, UniProt Q5S007, G2019S)
T1 construct: GST; purchased Invitrogen PV4882
Experiment: LRRK2 G2019S LanthaScreen TR-FRET kinase assay
Assay type: biochemical
Conditions: LRRK2 G2019S GST-tagged protein, 100 μM ATP, LRRKtide substrate; read-out: IC50 (potency)
Procedure: Activity of compounds against LRRK2 G2019S mutant kinase function was tested in a LANTHAScreen® assay as follows: Compounds were diluted in 100% DMSO to the desired test concentrations in white, low-volume 384-well plates (PerkinElmer ProxiPlate® PN: 6008280). TR-FRET kinase reactions (10 μL) were performed with 75 nM Fluorescein-ERM (LRRKtide, Invitrogen, PN:PV4901) substrate in a final assay buffer containing 100 μM ATP and 2 mM DTT diluted in commercially available Kinase Buffer S (Invitrogen PN: PV5213). The final solvent concentration in the assay was 1% DMSO. Reactions were initiated with the addition of 10 ng/well of LRRK2 02019S, GST-tagged protein (Invitrogen PN: PV4882). After incubation of the foil sealed reaction plates at room temperature with low speed mixing for 1 hour, the kinase reaction was stopped and the amount of substrate phosphorylation was detected by addition of 10 μL of 10 mM EDTA and 2 nM Tb-anti-pERM (pLRRKtide antibody, Invitrogen, PN: PV4898) antibody in TR-FRET dilution buffer (Invitrogen PN: PV3574). After a 30 minute incubation at room temperature with low speed mixing, foil seals were removed and measurements were obtained on a PerkinElmer EnVision with excitation 340 nm, emission 520 nm (channel 1): 495 nm (channel 2) settings. Generation of raw data and workup of data to derive the IC50 (potency) and maximal inhibition at concentrations tested were performed using Merck's Assay Data Analyzer (ADA) software.

T1 sequence (Q5S007 whole entry G2019S): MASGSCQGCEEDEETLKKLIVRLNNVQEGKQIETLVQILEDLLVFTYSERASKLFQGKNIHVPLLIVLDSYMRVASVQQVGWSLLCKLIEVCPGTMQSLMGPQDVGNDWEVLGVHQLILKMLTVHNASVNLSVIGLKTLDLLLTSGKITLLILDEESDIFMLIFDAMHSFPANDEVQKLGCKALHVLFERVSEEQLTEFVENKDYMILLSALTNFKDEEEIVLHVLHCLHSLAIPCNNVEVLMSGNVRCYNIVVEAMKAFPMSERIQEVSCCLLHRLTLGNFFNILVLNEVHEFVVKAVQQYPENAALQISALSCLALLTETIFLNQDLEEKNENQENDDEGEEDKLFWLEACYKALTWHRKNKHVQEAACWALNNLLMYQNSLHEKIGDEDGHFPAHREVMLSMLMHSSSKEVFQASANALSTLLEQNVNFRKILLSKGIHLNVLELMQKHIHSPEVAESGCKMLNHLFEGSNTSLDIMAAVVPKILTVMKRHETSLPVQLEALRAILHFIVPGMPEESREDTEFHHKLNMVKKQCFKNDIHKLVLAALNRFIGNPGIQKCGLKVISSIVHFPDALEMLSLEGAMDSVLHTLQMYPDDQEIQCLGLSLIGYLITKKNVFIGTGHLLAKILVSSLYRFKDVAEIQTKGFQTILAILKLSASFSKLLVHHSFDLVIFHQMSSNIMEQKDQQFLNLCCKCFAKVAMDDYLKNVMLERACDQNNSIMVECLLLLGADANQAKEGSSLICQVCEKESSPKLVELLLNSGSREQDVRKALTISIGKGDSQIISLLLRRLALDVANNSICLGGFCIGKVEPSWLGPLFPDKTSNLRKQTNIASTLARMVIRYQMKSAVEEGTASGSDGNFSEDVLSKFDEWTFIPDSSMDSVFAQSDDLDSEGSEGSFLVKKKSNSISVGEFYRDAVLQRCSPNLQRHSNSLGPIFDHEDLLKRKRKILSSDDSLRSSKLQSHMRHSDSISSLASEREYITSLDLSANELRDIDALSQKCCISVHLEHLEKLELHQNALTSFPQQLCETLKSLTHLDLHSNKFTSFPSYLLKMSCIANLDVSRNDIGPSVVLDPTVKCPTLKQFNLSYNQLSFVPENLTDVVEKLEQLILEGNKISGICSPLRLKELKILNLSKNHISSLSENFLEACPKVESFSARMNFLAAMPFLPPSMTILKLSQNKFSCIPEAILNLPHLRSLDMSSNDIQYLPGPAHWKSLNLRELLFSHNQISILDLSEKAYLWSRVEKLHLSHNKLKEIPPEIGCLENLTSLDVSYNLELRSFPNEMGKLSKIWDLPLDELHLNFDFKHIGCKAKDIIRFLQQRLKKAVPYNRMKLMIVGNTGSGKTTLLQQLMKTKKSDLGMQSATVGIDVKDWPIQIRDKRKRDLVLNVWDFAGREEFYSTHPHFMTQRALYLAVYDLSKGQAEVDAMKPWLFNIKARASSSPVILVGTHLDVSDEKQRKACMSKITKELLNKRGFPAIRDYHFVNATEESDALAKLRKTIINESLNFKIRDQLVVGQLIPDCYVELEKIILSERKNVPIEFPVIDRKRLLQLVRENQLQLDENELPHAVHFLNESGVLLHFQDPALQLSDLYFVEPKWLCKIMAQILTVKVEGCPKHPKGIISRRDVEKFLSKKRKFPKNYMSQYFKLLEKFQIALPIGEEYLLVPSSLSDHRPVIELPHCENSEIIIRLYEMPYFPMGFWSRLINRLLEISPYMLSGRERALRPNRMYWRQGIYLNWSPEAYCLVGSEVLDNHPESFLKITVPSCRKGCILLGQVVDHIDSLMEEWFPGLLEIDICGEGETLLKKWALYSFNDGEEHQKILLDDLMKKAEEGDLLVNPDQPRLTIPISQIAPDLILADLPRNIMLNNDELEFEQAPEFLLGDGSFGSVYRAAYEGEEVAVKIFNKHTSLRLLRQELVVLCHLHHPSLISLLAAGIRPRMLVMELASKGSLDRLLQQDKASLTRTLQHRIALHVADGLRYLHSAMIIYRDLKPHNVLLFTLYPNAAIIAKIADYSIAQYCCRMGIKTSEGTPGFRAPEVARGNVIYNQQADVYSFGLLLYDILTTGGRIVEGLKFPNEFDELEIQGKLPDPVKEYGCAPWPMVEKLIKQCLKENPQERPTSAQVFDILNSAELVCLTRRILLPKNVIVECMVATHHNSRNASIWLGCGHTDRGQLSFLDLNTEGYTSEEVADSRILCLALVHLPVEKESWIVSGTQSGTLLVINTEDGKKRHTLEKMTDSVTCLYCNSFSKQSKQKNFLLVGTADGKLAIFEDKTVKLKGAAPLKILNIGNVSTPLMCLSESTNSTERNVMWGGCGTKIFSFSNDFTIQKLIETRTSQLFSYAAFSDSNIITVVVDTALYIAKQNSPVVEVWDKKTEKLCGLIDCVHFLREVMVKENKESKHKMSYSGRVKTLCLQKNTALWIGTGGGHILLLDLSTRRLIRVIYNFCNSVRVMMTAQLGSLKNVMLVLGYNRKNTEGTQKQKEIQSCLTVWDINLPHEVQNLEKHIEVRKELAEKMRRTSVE

Work on O=C1CCCc2c(-c3cc[nH]n3)sc(NC3CCCC3)c21 [Example 4, 3-(Cyclopentylamino)-1-(1H-pyrazol-3-yl)-6,7-dihydro-2-benzothiophen-4(5H)-one] yielded a pIC50 of 6.80.

CN(C)c1sc(-c2cc[nH]n2)c2c1C(=O)CC(C)(C)C2 [Example 41, 3-(Dimethylamino)-6,6-dimethyl-1-(1H-pyrazol-3-yl)-6,7-dihydro-2-benzothiophen-4(5H)-one] gave a pIC50 of 5.70.

CSc1sc(-c2cc(C3CC3)[nH]n2)c2c1C(=O)CC(C)(C)C2 [Example 89, 1-(5-Cyclopropyl-1H-pyrazol-3-yl)-6,6-dimethyl-3-(methylsulfanyl)-6,7-dihydro-2-benzothiophen-4(5H)-one] was tested, and the pIC50 was 6.33.

CSc1sc(-c2cc[nH]n2)c2c1C(=O)C(C)CC2 (stereo not drawn) [Example 91, 5-Methyl-3-(methylsulfanyl)-1-(1H-pyrazol-3-yl)-6,7-dihydro-2-benzothiophen-4(5H)-one] showed a pIC50 of 6.82.

CC1(C)CC(=O)c2c(S(C)(=O)=O)sc(-c3cc[nH]n3)c2C1 [Example 6, 6,6-Dimethyl-3-(methylsulfonyl)-1-(1H-pyrazol-3-yl)-6,7-dihydro-2-benzothiophen-4(5H)-one] was tested, and the pIC50 was 5.55.

CCCNc1sc(-c2cc[nH]n2)c2c1C(=O)CC(C)(C)C2 [Example 35, 6,6-Dimethyl-3-(propylamino)-1-(1H-pyrazol-3-yl)-6,7-dihydro-2-benzothiophen-4(5H)-one] showed a pIC50 of 6.82.

CC(=O)NCCCCCCSc1sc(-c2cc[nH]n2)c2c1C(=O)CC(C)(C)C2 [Example 23, N-(6-{[5,5-Dimethyl-7-oxo-3-(1H-pyrazol-3-yl)-4,5,6,7-tetrahydro-2-benzothiophen-1-yl]sulfanyl}hexyl)acetamide] was tested, and the pIC50 was 6.74.

CC(C)Sc1sc(-c2cc[nH]n2)c2c1C(=O)CC(C)(C)C2 [Example 9, 6,6-Dimethyl-3-(propan-2-ylsulfanyl)-1-(1H-pyrazol-3-yl)-6,7-dihydro-2-benzothiophen-4(5H)-one] was tested, and the pIC50 was 6.85.

With CC1(C)CC(=O)c2c(SC3CCCC3)sc(-c3ccn(C(=O)NC4CCN(C(=O)C(F)(F)F)CC4)n3)c2C1 [Example 65, 3-[3-(Cyclopentylsulfanyl)-6,6-dimethyl-4-oxo-4,5,6,7-tetrahydro-2-benzothiophen-1-yl]-N-[1-(trifluoroacetyl)piperidin-4-yl]-1H-pyrazole-1-carboxamide] the pIC50 was 6.48.

Compound CC1(C)CC(=O)c2c(SC3CCCC3)sc(-c3ccn(C(=O)NCc4ccccc4)n3)c2C1 [Example 60, N-benzyl-3-[3-(Cyclopentylsulfanyl)-6,6-dimethyl-4-oxo-4,5,6,7-tetrahydro-2-benzothiophen-1-yl]-1H-pyrazole-1-carboxamide] has a pIC50 of 6.28.

O=C1CCCc2c(-c3cc[nH]n3)sc(SC3CCCC3)c21 [Example 3, 3-(Cyclopentylsulfanyl)-1-(1H-pyrazol-3-yl)-6,7-dihydro-2-benzothiophen-4(5H)-one] gave a pIC50 of 6.37.

Compound CCC(C)CSc1sc(-c2cc[nH]n2)c2c1C(=O)CC(C)(C)C2 (stereo not drawn) [Example 18, 6,6-Dimethyl-3-[(2-methylbutyl)sulfanyl]-1-(1H-pyrazol-3-yl)-6,7-dihydro-2-benzothiophen-4(5H)-one] has a pIC50 of 6.66.

With CC1(C)CC(=O)c2c(SC3CCCC3)sc(-c3ccn(C(=O)NC(C)(C)C)n3)c2C1 [Example 70, N-tert-Butyl-3-[3-(cyclopentylsulfanyl)-6,6-dimethyl-4-oxo-4,5,6,7-tetrahydro-2-benzothiophen-1-yl]-1H-pyrazole-1-carboxamide] the pIC50 was 5.89.

In the case of COc1ccc(C(=O)n2ccc(-c3sc(SC4CCCC4)c4c3CC(C)(C)CC4=O)n2)cc1 [Example 82, 3-(Cyclopentylsulfanyl)-1-{1-[(4-methoxyphenyl)carbonyl]-1H-pyrazol-3-yl}-6,6-dimethyl-6,7-dihydro-2-benzothiophen-4(5H)-one], the pIC50 was 5.47.

Work on CNC(=O)n1ccc(-c2sc(SC3CCCC3)c3c2CC(C)(C)CC3=O)n1 [Example 72, 3-[3-(Cyclopentylsulfanyl)-6,6-dimethyl-4-oxo-4,5,6,7-tetrahydro-2-benzothiophen-1-yl]-N-methyl-1H-pyrazole-1-carboxamide] yielded a pIC50 of 5.77.

Compound CC1(C)CC(=O)c2c(OC3CCCC3)sc(-c3cc[nH]n3)c2C1 [Example 52, 3-(Cyclopentyloxy)-6,6-dimethyl-1-(1H-pyrazol-3-yl)-6,7-dihydro-2-benzothiophen-4(5H)-one] has a pIC50 of 6.52.

For CC1(C)CC(=O)c2c(SC3CCCC3)sc(-c3ccn(C(=O)Nc4ccc(Cl)cc4)n3)c2C1 [Example 62, N-(4-Chlorophenyl)-3-[3-(cyclopentylsulfanyl)-6,6-dimethyl-4-oxo-4,5,6,7-tetrahydro-2-benzothiophen-1-yl]-1H-pyrazole-1-carboxamide], the pIC50 was 7.07.

Compound CC(C)Oc1sc(-c2cc[nH]n2)c2c1C(=O)CC(C)(C)C2 [Example 54, 6,6-Dimethyl-3-(propan-2-yloxy)-1-(1H-pyrazol-3-yl)-6,7-dihydro-2-benzothiophen-4(5H)-one] has a pIC50 of 6.10.

CC1(C)CC(=O)c2c(SCC(F)(F)F)sc(-c3cc[nH]n3)c2C1 [Example 29, 6,6-Dimethyl-1-(1H-pyrazol-3-yl)-3-[(2,2,2-trifluoroethyl)sulfanyl]-6,7-dihydro-2-benzothiophen-4(5H)-one] showed a pIC50 of 6.60.

Work on CCNc1sc(-c2cc[nH]n2)c2c1C(=O)CC(C)(C)C2 [Example 38, 3-(Ethylamino)-6,6-dimethyl-1-(1H-pyrazol-3-yl)-6,7-dihydro-2-benzothiophen-4(5H)-one] yielded a pIC50 of 6.54.

CC1(C)CC(=O)c2c(NC3CC3)sc(-c3cc[nH]n3)c2C1 [Example 46, 3-(Cyclopropylamino)-6,6-dimethyl-1-(1H-pyrazol-3-yl)-6,7-dihydro-2-benzothiophen-4(5H)-one] showed a pIC50 of 6.68.

For CC1(C)CC(=O)c2c(NCc3ccco3)sc(-c3cc[nH]n3)c2C1 [Example 44, 3-[(Furan-2-ylmethyl)amino]-6,6-dimethyl-1-(1H-pyrazol-3-yl)-6,7-dihydro-2-benzothiophen-4(5H)-one], the pIC50 was 6.42.

In the case of COc1ccccc1NC(=O)n1ccc(-c2sc(SC3CCCC3)c3c2CC(C)(C)CC3=O)n1 [Example 66, 3-[3-(Cyclopentylsulfanyl)-6,6-dimethyl-4-oxo-4,5,6,7-tetrahydro-2-benzothiophen-1-yl]-N-(2-methoxyphenyl)-1H-pyrazole-1-carboxamide], the pIC50 was 6.96.

In the case of CC1(C)CC(=O)c2c(OC3CCC3)sc(-c3cc[nH]n3)c2C1 [Example 53, 3-(Cyclobutylexy)-6,6-dimethyl-1-(1H-pyrazol-3-yl)-6,7-dihydro-2-benzothiophen-4(5H)-one], the pIC50 was 6.37.

Compound CCCC1CCc2c(-c3cc[nH]n3)sc(SC)c2C1=O (stereo not drawn) [Example 92, 3-(Methylsulfanyl)-5-propyl-1-(1H-pyrazol-3-yl)-6,7-dihydro-2-benzothiophen-4(5H)-one] has a pIC50 of 6.51.

For CSc1sc(-c2cc(C)[nH]n2)c2c1C(=O)CC(C)(C)C2 [Example 88, 6,6-Dimethyl-1-(5-methyl-1H-pyrazol-3-yl)-3-(methylsulfanyl)-6,7-dihydro-2-benzothiophen-4(5H)-one], the pIC50 was 5.85.

CN1CCN(c2sc(-c3cc[nH]n3)c3c2C(=O)CC(C)(C)C3)CC1 [Example 43, 6,6-Dimethyl-3-(4-methylpiperazin-1-yl)-1-(1H-pyrazol-3-yl)-6,7-dihydro-2-benzothiophen-4(5H)-one] gave a pIC50 of 5.40.

CCCc1sc(-c2cc[nH]n2)c2c1C(=O)CC(C)(C)C2 [Example 56, 6,6-Dimethyl-3-propyl-1-(1H-pyrazol-3-yl)-6,7-dihydro-2-benzothiophen-4(5H)-one] gave a pIC50 of 5.66.

With CC1(C)CC(=O)c2c(SCCCCCCO)sc(-c3cc[nH]n3)c2C1 [Example 19, 3-[(6-Hydroxyhexyl)sulfanyl]-6,6-dimethyl-1-(1H-pyrazol-3-yl)-6,7-dihydro-2-benzothiophen-4(5H)-one] the pIC50 was 7.22.

Compound CC1(C)CC(=O)c2c(SCCCN=[N+]=[N-])sc(-c3cc[nH]n3)c2C1 [Example 21, 3-[(3-Azidopropyl)sulfanyl]-6,6-dimethyl-1-(1H-pyrazol-3-yl)-6,7-dihydro-2-benzothiophen-4(5H)-one] has a pIC50 of 6.70.

For CC1(C)CC(=O)c2c(NC3CCCC3)sc(-c3ccn(C(=O)Nc4ccncc4)n3)c2C1 [Example 75, 3-[3-(Cyclopentylamino)-6,6-dimethyl-4-oxo-4,5,6,7-tetrahydro-2-benzothiophen-1-yl]-N-(pyridin-4-yl)-1H-pyrazole-1-carboxamide], the pIC50 was 6.14.

CC1(C)CC(=O)c2c(SCCc3ccccc3)sc(-c3cc[nH]n3)c2C1 [Example 17, 6,6-Dimethyl-3-[(2-phenylethyl)sulfanyl]-1-(1H-pyrazol-3-yl)-6,7-dihydro-2-benzothiophen-4(5H)-one] gave a pIC50 of 6.35.

CC1(C)CC(=O)c2c(SC3CCCC3)sc(-c3ccn(C(=O)Cc4ccc(Cl)cc4)n3)c2C1 [Example 79, 1-{1-[(4-Chlorophenyl)acetyl]-1H-pyrazol-3-yl}-3-(cyclopentylsulfanyl)-6,6-dimethyl-6,7-dihydro-2-benzothiophen-4(5H)-one] was tested, and the pIC50 was 6.22.
